According to patent US20260184708A1, “PYRIDAZINONES AND METHODS OF USE THEREOF” (GFB (ABC), LLC, priority 2017, published 2026):
Read-outs that look alike come from different tables or passages of the source.

Target: T1, TRPC5 (Homo sapiens, UniProt Q9UL62)
T1 construct: expressed in transfected cells; host or cells: HEK 293
T1 sequence (Q9UL62 1-973): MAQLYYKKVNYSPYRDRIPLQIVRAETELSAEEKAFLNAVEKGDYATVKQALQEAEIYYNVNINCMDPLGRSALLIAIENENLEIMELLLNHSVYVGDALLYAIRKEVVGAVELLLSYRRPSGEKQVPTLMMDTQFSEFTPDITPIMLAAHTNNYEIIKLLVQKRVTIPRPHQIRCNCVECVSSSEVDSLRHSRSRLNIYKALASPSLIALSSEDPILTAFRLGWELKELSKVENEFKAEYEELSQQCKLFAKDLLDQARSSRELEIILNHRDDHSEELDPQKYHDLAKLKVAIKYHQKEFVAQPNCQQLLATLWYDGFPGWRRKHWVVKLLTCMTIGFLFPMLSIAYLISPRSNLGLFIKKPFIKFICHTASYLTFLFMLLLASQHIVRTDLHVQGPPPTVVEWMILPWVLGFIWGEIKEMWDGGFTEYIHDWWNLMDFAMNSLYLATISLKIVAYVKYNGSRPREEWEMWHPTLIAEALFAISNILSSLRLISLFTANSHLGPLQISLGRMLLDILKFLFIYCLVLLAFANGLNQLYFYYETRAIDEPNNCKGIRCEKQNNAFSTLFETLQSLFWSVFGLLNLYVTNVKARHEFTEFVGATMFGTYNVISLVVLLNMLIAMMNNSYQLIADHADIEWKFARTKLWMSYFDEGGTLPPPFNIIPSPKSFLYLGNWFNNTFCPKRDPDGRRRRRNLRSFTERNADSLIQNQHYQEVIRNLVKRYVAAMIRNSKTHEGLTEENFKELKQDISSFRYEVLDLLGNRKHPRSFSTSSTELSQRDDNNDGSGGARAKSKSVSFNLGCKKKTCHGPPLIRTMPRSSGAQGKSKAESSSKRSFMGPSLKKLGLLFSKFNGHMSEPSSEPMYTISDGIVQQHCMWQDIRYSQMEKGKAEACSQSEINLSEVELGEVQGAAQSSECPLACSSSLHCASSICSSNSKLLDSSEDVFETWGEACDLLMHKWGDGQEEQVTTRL
Assay: TRPC5 automated patch clamp assay (Qpatch), current block after rosiglitazone stimulation
Type: cell-based
Details: HEK293 cells overexpressing TRPC5
Method in brief: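 HEK 293 cells expressing human TRPC5, whole-cell QPatch recording; 1 μM buffered free internal Ca2+, external pH 7.4. Ramps −100 to +100 mV over 300 ms every 10 s from −60 mV holding; channel activated by Rosiglitazone (30 uM) after ≥60 s control. IC50 from Hill fit.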

[1] = Table 3, rosiglitazone stimulation, 80 mV, read-out: TRPC5_QP_ XC50_80
[2] = Table 3, rosiglitazone stimulation, 100 mV, read-out: TRPC5_QP_ XC50_100
[3] = Table 4, rosiglitazone stimulation, 80 mV, read-out: TRPC5_QP_ XC50_80
[4] = Table 4, rosiglitazone stimulation, 100 mV, read-out: TRPC5_QP_ XC50_100
[5] = Table 5, rosiglitazone stimulation, 80 mV, read-out: TRPC5_QP_ XC50_80
[6] = Table 5, rosiglitazone stimulation, 100 mV, read-out: TRPC5_QP_ XC50_100
[7] = Table 6, read-out: TRPC5-QPatch IC50

Row | SMILES | IC50 [1] | IC50 [2] | other results
1 | Cc1ccccc1CN1CCN(c2cn[nH]c(=O)c2Br)C(C)C1 (stereo not shown) [drawing 647] | 1 to 5 µM | 1 to 5 µM | –
2 | Cc1ccccc1CN1CCN(c2cn[nH]c(=O)c2Br)CC1C (stereo not shown) [drawing 649] | 10 to 500 µM | 10 to 500 µM | –
3 | Cc1ccccc1CN1CCN(c2cn[nH]c(=O)c2Br)C(C)C1 (stereo not shown) [drawing 650] | 10 to 500 µM | 10 to 500 µM | –
4 | Cc1ccccc1CN1CCN(c2cn[nH]c(=O)c2Br)CC1C (stereo not shown) [drawing 651] | – | 10 to 500 µM | –
5 | Cc1ccccc1CN1CCN(c2cn[nH]c(=O)c2Cl)CC1=O [drawing 664] | 1e-05 to 1 µM | 1e-05 to 1 µM | –
6 | O=C1CN(c2cn[nH]c(=O)c2Br)CCN1Cc1cccc2ccccc12 [drawing 665] | 1e-05 to 1 µM | 1e-05 to 1 µM | –
7 | CN(C)C(=O)CN1CCN(c2cn[nH]c(=O)c2Cl)CC1 [drawing 673] | 10 to 500 µM | 10 to 500 µM | –
8 | O=c1[nH]ncc(N2CCN(Cc3ccccc3Cl)CC2)c1Cl [drawing 676] | 1 to 5 µM | 1 to 5 µM | –
9 | Cc1cc(F)ccc1CN1CCN(c2cn[nH]c(=O)c2Cl)CC1 [drawing 679] | 1 to 5 µM | 1 to 5 µM | –
10 | O=C1CN(c2cn[nH]c(=O)c2Cl)CCN1Cc1ccc(F)cc1Cl [drawing 682] | 1 to 5 µM | 1 to 5 µM | –
11 | O=C1CN(c2cn[nH]c(=O)c2Cl)CCN1Cc1ccc(F)cc1F [drawing 686] | 1 to 5 µM | 1 to 5 µM | –
12 | O=C1CN(c2cn[nH]c(=O)c2Cl)CCN1Cc1ccccc1OC(F)(F)F [drawing 689] | 1e-05 to 1 µM | 1e-05 to 1 µM | –
13 | O=c1[nH]ncc(N2CCN(Cc3ccccc3C(F)(F)F)CC2)c1Cl [drawing 694] | 1 to 5 µM | 1 to 5 µM | –
14 | Cc1ccccc1CN1CCN(c2cn[nH]c(=O)c2CCC(C)C)CC1=O [drawing 695] | 10 to 500 µM | 10 to 500 µM | –
15 | O=c1[nH]ncc(N2CCN(Cc3ccccc3C(F)(F)F)CC2)c1Cl [drawing 699] | – | – | IC50 [3]: 1 to 5 µM; IC50 [4]: 1 to 5 µM
16 | Cc1ccccc1CN1CCN(c2cn[nH]c(=O)c2CCC(C)C)CC1=O [drawing 700] | – | – | IC50 [3]: 10 to 500 µM; IC50 [4]: 10 to 500 µM
17 | CN(C)C(=O)CN1CCN(c2cn[nH]c(=O)c2Cl)CC1 [drawing 708] | – | – | IC50 [3]: 10 to 500 µM; IC50 [4]: 10 to 500 µM
18 | C[C@@H]1CN(Cc2ccccc2C(F)(F)F)CCN1c1cn[nH]c(=O)c1Cl [drawing 716] | – | – | IC50 [3]: 1 to 5 µM; IC50 [4]: 1 to 5 µM
19 | Cc1ncccc1CN1CCN(c2cn[nH]c(=O)c2Cl)CC1 [drawing 719] | – | – | IC50 [3]: 1e-05 to 1 µM; IC50 [4]: 1e-05 to 1 µM
20 | Cc1cc(Cl)ccc1CN1CCN(c2cn[nH]c(=O)c2Cl)CC1=O [drawing 737] | – | – | IC50 [3]: 1 to 5 µM; IC50 [4]: 1 to 5 µM
21 | Cc1ccccc1[C@H](C)N1CCN(c2cn[nH]c(=O)c2Cl)CC1=O [drawing 743] | – | – | IC50 [3]: 1e-05 to 1 µM; IC50 [4]: 1e-05 to 1 µM
22 | COc1cc(F)ccc1CN1CCN(c2cn[nH]c(=O)c2Cl)CC1=O [drawing 772] | – | – | IC50 [5]: 1 to 5 µM; IC50 [6]: 1 to 5 µM
23 | Cc1ccccc1Cn1cnc2c1CCN(c1cn[nH]c(=O)c1Cl)C2 [drawing 830] | – | – | IC50 [5]: 1e-05 to 1 µM; IC50 [6]: 1e-05 to 1 µM
24 | O=c1[nH]ncc(N2CCc3c(ncn3Cc3ccccc3)C2)c1Cl [drawing 831] | – | – | IC50 [5]: 1 to 5 µM; IC50 [6]: 1 to 5 µM
25 | C[C@H](c1ccccc1)n1cnc2c1CCN(c1cn[nH]c(=O)c1Cl)C2 [drawing 833] | – | – | IC50 [5]: 1 to 5 µM; IC50 [6]: 1 to 5 µM
26 | O=c1[nH]ncc(N2CCc3c(ncn3Cc3ccccc3C(F)F)C2)c1Cl [drawing 839] | – | – | IC50 [7]: 5 to 10 µM
27 | CCc1cc(F)ccc1Cn1cnc2c1CCN(c1cn[nH]c(=O)c1Cl)C2 [drawing 889] | – | – | IC50 [7]: 1e-05 to 1 µM
28 | N#Cc1c(N2CCc3c(nnn3Cc3ccccc3C(F)(F)F)C2)cn[nH]c1=O [drawing 891] | – | – | IC50 [7]: 1 to 5 µM
